From patent publication US20240308878A1, “WATER TREATMENT SYSTEM, WATER TREATMENT METHOD, AND AMINE SOLUTION” (KABUSHIKI KAISHA TOSHIBA, priority 2023, published 2024)

Experiment: Heating of the separated supernatant in a thermostatic bath: separation into amine phase and aqueous phase
Assay type: physicochemical
Text: The element 15 that separates the supernatant phase F into the aqueous phase H and the organic phase J and recovers the tertiary amine recovers the tertiary amine included in the supernatant phase F. As the element 15 that separates the supernatant phase F into the aqueous phase H and the organic phase J and recovers the tertiary amine, the mechanism of heating the supernatant phase F is preferable. For example, the supernatant phase F is stored in a second container, not shown, and the supernatant phase F is heated in the second container. As the temperature of the supernatant phase F is increased, the compatibility of the tertiary amine compounds of the embodiment with water changes, and supernatant phase F separates into the organic phase and the aqueous phase. The supernatant phase F separates into the aqueous phase H and the organic phase J at a higher temperature than the first mixture D which separates into the phases. It is preferable that the supernatant phase F is heated to a temperature higher than the temperature of the first mixture (the temperature at which the first mixture D is phase-separated (the temperature at which the supernatant phase F and the concentrated phase G are separated separately)). It is preferable that the supernatant phase F is heated to a temperature 5[° C.] or higher than the temperature of the first mixture D (the temperature at which the first mixture D is phase-separated (the temperature at which the supernatant phase F and the concentrated phase G are separated separately)). It is preferable that the supernatant phase F is heated to a temperature 10[° C.] or higher than the temperature of the first mixture D (the temperature at which the first mixture D is phase-separated (the temperature at which the supernatant phase F and the concentrated phase G are separated separately)). It is preferable that the supernatant phase F is heated to a temperature 20[° C.] or higher than the temperature of the first mixture D (the temperature at which the first mixture D is phase-separated (the temperature at which the supernatant phase F and the concentrated phase G are separated separately)). It is preferable that the supernatant phase F is heated to a temperature 20 [° C.] or higher than the temperature of the first mixture D. It is preferable that the supernatant phase F is heated to a temperature 30 [° C.] or higher than the temperature of the first mixture D (the temperature at which the first mixture D is phase-separated (the temperature at which the supernatant phase F and the concentrated phase G are separated separately)). The supernatant phase F is preferably heated to 35[° C.] or more and less than 90[° C.]. From the viewpoint of reducing energy consumption, it is more preferably that the supernatant phase F is heated to 35[° C.] or more and 75[° C.] or less. The supernatant phase F is preferably phase-separated at 35 [° C.] or more and less than 90[° C.]. From the viewpoint of reducing energy consumption, the supernatant phase F is more preferably phase-separated at 35[° C.] or more and less than 90[° C.]. It is preferable to use waste heat generated at a plant or the like to heat the supernatant phase F.
When the separated supernatant solution is heated in a thermostatic bath at 70[° C.], it is separated into an amine phase and an aqueous phase. When the amine phase is separated and used for the same test, the salt removal rate of 97.5 [%] is obtained, and the concentration of the lower phase being separated of 21.2 [wt %] is obtained, which is the similar results as in the first test.

[1] = supernatant of the S/F 4.0 test
[2] = supernatant of the S/F 6.0 test
[3] = supernatant of the S/F 7.0 test
[4] = supernatant of the S/F 10.0 test

SMILES	Separating Temperature Water/Amine [1] [°C]	Separating Temperature Water/Amine [2] [°C]	Separating Temperature Water/Amine [3] [°C]	Separating Temperature Water/Amine [4] [°C]
CCOC(=O)N1CCN(CCCN2CCN(C(=O)OCC)CC2)CC1 [chemical formula (2-1)]	70	70	50	70
C1CCN(CCCN2CCCC2)C1 [chemical formula (1-2)]	70	70	60	70
